Among the data in patent US9873690B2, “3-indol substituted derivatives, pharmaceutical compositions and methods for use” (Pfizer Inc., priority 2015, dated 2018) are IC50 values, retold here.

T1 sequence (P48775 whole entry): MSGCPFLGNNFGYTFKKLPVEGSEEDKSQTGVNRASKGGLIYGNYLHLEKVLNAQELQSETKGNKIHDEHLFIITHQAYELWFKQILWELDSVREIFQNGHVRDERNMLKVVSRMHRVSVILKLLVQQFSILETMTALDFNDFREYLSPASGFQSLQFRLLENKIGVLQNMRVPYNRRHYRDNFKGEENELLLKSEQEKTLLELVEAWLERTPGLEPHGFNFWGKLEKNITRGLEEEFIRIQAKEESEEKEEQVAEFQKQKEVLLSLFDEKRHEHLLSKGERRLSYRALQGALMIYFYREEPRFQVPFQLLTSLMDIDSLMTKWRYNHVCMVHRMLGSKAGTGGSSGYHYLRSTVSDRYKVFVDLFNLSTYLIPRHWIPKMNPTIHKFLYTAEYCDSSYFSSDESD

The assay concerns the target T1, hTDO2 (Homo sapiens, UniProt P48775).
T1 construct: endogenous in cells; host or cells: A172 human brain glioblastoma cells (ATCC CRL-1620)
Kind of assay: Cellular assay for TDO2 activity determination in A172 cells. The assay is classed as cell-based. The following applies: human glioblastoma A172 cells naturally expressing hTDO2; overnight incubation; kynurenine by absorbance at 480 nm. On the procedure: The compounds of formula I inhibit the activity of human TDO2 in cells that constitutively express TDO2, such as A172 cells. A172 is a cell line derived from human brain glioblastoma cells. The cells are available from the American Type Culture Collection (ATCC®) as CRL-1620™.
The assay (adapted from Pilotte L et al., Proc Natl Acad Sci USA, 2012, 109(7), 2497-502) was performed in 96-well flat bottom plates seeded with human glioblastoma A172 cells, naturally expressing hTDO2 (prepared as described in Tilman et al., Mol Cancer, 2007, 17(6), 80), at a concentration of 1.25×10^4 cells/well in a final volume of 200 μL. To determine TDO, the cells were incubated overnight at 37° C. at 5% CO2 in IMDM (Invitrogen) supplemented with 2% FBS and 2% penicillin/streptomycin in the presence of the compounds of the present invention, at different concentrations.
The plates were then centrifuged 5 min at 1000 rpm, and 100 μL of the supernatant were collected in a conical plate, 30 μL of TCA 30% were added and a further centrifuged at 3000×g for 10 minutes. 100 μL of the supernatant were collected in a flat bottomed plate and 100 μL of 2% (w/v) 4-(dimethylamino)-benzaldehyde in acetic acid and incubated for 5 min at room temperature. Kynurenine concentrations were determined by measuring the absorbance at 480 nm. A standard curve was made with pure kynurenine. The TDO activity was measured as described above using ten serial concentrations of the compounds of the present invention. Data were fitted using the Prism™ software (GraphPad Software, Inc.) using standard parameters.
The biological activity of representative compounds in human brain glioblastoma cells as determined in the above-referenced assay is summarized in the following table: […]
The IC50 is the midpoint of a concentration-inhibition curve. Lower therefore signals greater potency. As to `CC1c2cc(-c3c[nH]c4cc(F)ccc34)ccc2S(=O)(=O)N1CC1CCNCC1` (single isomer, unassigned; (-)) [Example 77, (−) 5-(6-fluoro-1H-indol-3-yl)-3-methyl-2-(piperidin-4-ylmethyl)-2,3-dihydrobenzo[d]isothiazole 1,1-dioxide], inhibition was half-maximal at 415 nM (IC50).

`Cn1cnc(CN2C(CO)c3cc(-c4c[nH]c5cc(F)ccc45)ccc3S2(=O)=O)n1` (single isomer, unassigned; (+)) [Example 130, (+)-5-(6-fluoro-1H-indol-3-yl)-3-(hydroxymethyl)-2-((1-methyl-1H-1,2,4-triazol-3-yl)methyl)-2,3-dihydrobenzo[d]isothiazole 1,1-dioxide] returned an IC50 of 112 nM.

In turn, `CNC(=O)CN1C(C)c2cc(-c3c[nH]c4cc(F)ccc34)ccc2S1(=O)=O` (single isomer, unassigned; (-)) [Example 111, (−)-2-(5-(6-fluoro-1H-indol-3-yl)-3-methyl-1,1-dioxidobenzo[d]isothiazol-2(3H)-yl)-N-methylacetamide] displayed a concentration for half-maximal inhibition (IC50) of 45 nM.

Compound `CN1CC(N2Cc3cc(-c4c[nH]c5cc(F)ccc45)ccc3S2(=O)=O)C1` [Example 41, 5-(6-fluoro-1H-indol-3-yl)-2-(1-methylazetidin-3-yl)-2,3-dihydrobenzo[d]isothiazole 1,1-dioxide] displayed an IC50 of 433 nM.

For the compound `CC1c2cc(-c3c[nH]c4cc(F)ccc34)ccc2S(=O)(=O)N1CCN1CCOC1=O` (single isomer, unassigned; (-)) [Example 70, (−)-3-(2-(5-(6-fluoro-1H-indol-3-yl)-3-methyl-1,1-dioxidobenzo[d]isothiazol-2(3H)-yl)ethyl)oxazolidin-2-one], half-maximal inhibition (IC50) was put at 50 nM.

Compound `NCC1NS(=O)(=O)c2ccc(-c3c[nH]c4cc(F)ccc34)cc21` (single isomer, unassigned; (-)) [Example 20, (−)-3-(aminomethyl)-5-(6-fluoro-1H-indol-3-yl)-2,3-dihydrobenzo[d]isothiazole 1,1-dioxide] returned an IC50 of 430 nM.

The compound `CC1c2cc(-c3c[nH]c4cc(F)ccc34)ccc2S(=O)(=O)N1CC[S+](C)[O-]` (single isomer, unassigned; (-)) [Example 57, (−)-5-(6-fluoro-1H-indol-3-yl)-3-methyl-2-(2-(methylsulfinyl)ethyl)-2,3-dihydrobenzo[d]isothiazole 1,1-dioxide] registered an IC50 of 61 nM.

`CC(C)C1NS(=O)(=O)c2ccc(-c3c[nH]c4cc(F)ccc34)cc21` (single isomer, unassigned; (-)) [Example 9, (−)-5-(6-fluoro-1H-indol-3-yl)-3-isopropyl-2,3-dihydrobenzo-[d]isothiazole 1,1-dioxide] had an IC50 of 82 nM.

In the case of `CNCC1NS(=O)(=O)c2ccc(-c3c[nH]c4cc(F)ccc34)cc21` (single isomer, unassigned) [Example 137, 5-(6-fluoro-1H-indol-3-yl)-3-((methylamino)methyl)-2,3-dihydrobenzo[d]isothiazole 1,1-dioxide], the IC50 worked out at 66 nM.

On to `O=S1(=O)c2ccc(-c3c[nH]c4cc(F)ccc34)cc2C(CO)N1CC(O)CO` (single isomer, unassigned; (-)) [Example 142, (−)-2-(2,3-dihydroxypropyl)-5-(6-fluoro-1H-indol-3-yl)-3-(hydroxymethyl)-2,3-dihydrobenzo[d]isothiazole 1,1-dioxide], for which the IC50 is 124 nM.

The compound `CC1c2cc(-c3c[nH]c4cc(F)ccc34)ccc2S(=O)(=O)N1CC1(C)COC(=O)N1` (single isomer, unassigned; (+)) [Example 89, (+)-4-((5-(6-fluoro-1H-indol-3-yl)-3-methyl-1,1-dioxidobenzo[d]isothiazol-2(3H)-yl)methyl)-4-methyloxazolidin-2-one] had a concentration for half-maximal inhibition (IC50) of 58 nM.

`CC(=O)N(C)CC1NS(=O)(=O)c2ccc(-c3c[nH]c4cc(F)ccc34)cc21` (single isomer, unassigned; (-)) [Example 28, (−)-N-((5-(6-fluoro-1H-indol-3-yl)-1,1-dioxido-2,3-dihydrobenzo[d]isothiazol-3-yl)methyl)-N-methylacetamide] had an IC50 of 505 nM.

In turn, `O=S1(=O)c2ccc(-c3c[nH]c4cc(F)ccc34)cc2CN1C[C@@H](O)CO` [Example 35, (R)-2-(2,3-dihydroxypropyl)-5-(6-fluoro-1H-indol-3-yl)-2,3-dihydrobenzo[d]isothiazole 1,1-dioxide] gave an IC50 of 119 nM.

In the case of `CC1c2cc(-c3c[nH]c4cc(F)ccc34)ccc2S(=O)(=O)N1Cc1ncn(C)n1` (single isomer, unassigned; (-)) [Example 85, (−)-5-(6-fluoro-1H-indol-3-yl)-3-methyl-2-((1-methyl-1H-1,2,4-triazol-3-yl)methyl)-2,3-dihydrobenzo[d]isothiazole 1,1-dioxide], half-maximal inhibition (IC50) was put at 57 nM.

Turning to `Cc1cc(O)n(CCN2C(C)c3cc(-c4c[nH]c5cc(F)ccc45)ccc3S2(=O)=O)n1` (single isomer, unassigned; (+)) [Example 67, (+)-5-(6-fluoro-1H-indol-3-yl)-2-(2-(5-hydroxy-3-methyl-1H-pyrazol-1-yl)ethyl)-3-methyl-2,3-dihydrobenzo[d]isothiazole 1,1-dioxide], the IC50 came out at 9500 nM.

The compound `CC1c2cc(-c3c[nH]c4cc(F)ccc34)ccc2S(=O)(=O)N1CC1CCN(C)CC1` (single isomer, unassigned; (-)) [Example 79, (−)-5-(6-fluoro-1H-indol-3-yl)-3-methyl-2-((1-methylpiperidin-4-yl)methyl)-2,3-dihydrobenzo[d]isothiazole 1,1-dioxide] returned an IC50 of 258 nM.

With `CC(=O)N(C)CC1NS(=O)(=O)c2ccc(-c3c[nH]c4cc(F)ccc34)cc21` (single isomer, unassigned; (+)) [Example 27, (+)-N-((5-(6-fluoro-1H-indol-3-yl)-1,1-dioxido-2,3-dihydrobenzo[d]isothiazol-3-yl)methyl)-N-methylacetamide], it took 226 nM to reach half-maximal inhibition (IC50).

`O=S1(=O)NC(CO)c2cc(-c3c[nH]c4cc(F)ccc34)ccc21` (single isomer, unassigned; (+)) [Example 13, (+)-5-(6-fluoro-1H-indol-3-yl)-3-(hydroxymethyl)-2,3-dihydrobenzo[d]isothiazole 1,1-dioxide] had an IC50 of 43 nM.

The compound `O=S1(=O)NC2(CC2)c2cc(-c3c[nH]c4cc(F)ccc34)ccc21` [Example 136, 5-(6-fluoro-1H-indol-3-yl)-2H-spiro[benzo[d]-isothiazole-3,1′-cyclopropane] 1,1-dioxide] gave an IC50 of 233 nM.

`CC1c2cc(-c3c[nH]c4cc(F)ccc34)ccc2S(=O)(=O)N1CC[S+](C)[O-]` (single isomer, unassigned; (+)) [Example 58, (+)-5-(6-fluoro-1H-indol-3-yl)-3-methyl-2-(2-(methylsulfinyl)ethyl)-2,3-dihydrobenzo[d]isothiazole 1,1-dioxide] displayed an IC50 of 267 nM.

In the case of `CC1=NS(=O)(=O)c2ccc(-c3c[nH]c4cc(F)ccc34)cc21` [Example 135, 5-(6-fluoro-1H-indol-3-yl)-3-methylbenzo[d]isothiazole 1,1-dioxide], 183 nM corresponded to half-maximal inhibition (IC50).

Take `CNC(=O)C(CN1C(C)c2cc(-c3c[nH]c4cc(F)ccc34)ccc2S1(=O)=O)OC` (single isomer, unassigned; (+)) [Example 107, (+)-3-(5-(6-fluoro-1H-indol-3-yl)-3-methyl-1,1-dioxidobenzo[d]isothiazol-2(3H)-yl)-2-methoxy-N-methylpropanamide]: the midpoint of inhibition, the IC50, lay at 499 nM.

Consider `O=S1(=O)c2ccc(-c3c[nH]c4cc(F)ccc34)cc2C(CO)N1CCO` (single isomer, unassigned; (-)) [Example 132, (−)-5-(6-fluoro-1H-indol-3-yl)-2-(2-hydroxyethyl)-3-(hydroxymethyl)-2,3-dihydrobenzo[d]isothiazole 1,1-dioxide], for which the midpoint of inhibition, the IC50, lay at 81 nM.

Compound `CC1c2cc(-c3c[nH]c4cc(F)ccc34)ccc2S(=O)(=O)N1CCc1n[nH]c(=O)o1` (single isomer, unassigned; (-)) [Example 133, (−)-5-(2-(5-(6-fluoro-1H-indol-3-yl)-3-methyl-1,1-dioxidobenzo[d]isothiazol-2(3H)-yl)ethyl)-1,3,4-oxadiazol-2(3H)-one] gave an IC50 of 383 nM.

The compound `CC1c2cc(-c3c[nH]c4cc(F)ccc34)ccc2S(=O)(=O)N1Cc1ccccn1` (centres unmarked) [Example 149, 5-(6-fluoro-1H-indol-3-yl)-3-methyl-2-(pyridin-2-ylmethyl)-2,3-dihydrobenzo[d]isothiazole 1,1-dioxide] yielded an IC50 of 397 nM.

`CNC(=O)C(O)CN1C(C)c2cc(-c3c[nH]c4cc(F)ccc34)ccc2S1(=O)=O` (single isomer, unassigned; (+)) [Example 99, (+)-3-(5-(6-fluoro-1H-indol-3-yl)-3-methyl-1,1-dioxidobenzo[d]isothiazol-2(3H)-yl)-2-hydroxy-N-methylpropanamide] showed an IC50 of 180 nM.
